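Growth conditions: 96-well plates. Treatment: test compound, 48 hours, 5 concentrations. Analysis: linear interpolation between bracketing concentrations; unreached endpoints set to highest concentration. GI50 = concentration required for 50% inhibition of growth. TGI is the concentration that stops growth completely.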

Test systems include A549 NSCLC; HT29 colon; K-562 leukemia; NCI-H460 lung; RXF 393 renal; SF-539 CNS; SK-MEL-5 melanoma; SNB-19 CNS; UACC-257 melanoma; RPMI-8226 leukemia.
Common to all, as to experiment: NCI-60 cell line screen, 48 h

Regarding `CC(=O)OCCOCNC(=S)N/N=C(\C)c1ccco1`, the TGI with A549 NSCLC, with HT29 colon, in the experiment on K-562 leukemia, in the experiment with NCI-H460 lung, with RXF 393 renal and in the experiment with SF-539 CNS was over 100 µM throughout. In addition, the TGI in the experiment with SK-MEL-5 melanoma, in the experiment with SNB-19 CNS and with UACC-257 melanoma was over 100 µM throughout.

`Fc1ccc(Nc2nc(Nc3ccc(-c4nc5ccccc5[nH]4)cc3)nc(N3CCCC3)n2)cc1`: the GI50 in the experiment on A549 NSCLC is 3.07 µM; with HT29 colon it was 2.54 µM; with K-562 leukemia, 2310 nM; with NCI-H460 lung, 2 µM; in the experiment with RPMI-8226 leukemia, 2280 nM; in the experiment on RXF 393 renal, 2170 nM. Further, the GI50 is 2080 nM in the experiment with SF-539 CNS, 11.8 µM in the experiment with SK-MEL-5 melanoma and 3.93 µM with SNB-19 CNS. Further, the TGI with A549 NSCLC was determined as 9.1 µM; with HT29 colon, 5.62 µM; in the experiment with K-562 leukemia it was 5.35 µM; in the experiment with NCI-H460 lung it was 4.2 µM; in the experiment with RPMI-8226 leukemia, 6.3 µM; in the experiment with RXF 393 renal it was 4.57 µM. Further, the values for the TGI in the experiment with SF-539 CNS, in the experiment with SK-MEL-5 melanoma and with SNB-19 CNS were 4.26 µM, 24.4 µM and 19.1 µM, respectively.

As for `CC1SC(c2cccs2)N(NC(=O)C(O)c2ccccc2)C1=O` (stereo not drawn), the GI50 in the experiment with A549 NSCLC is over 100 µM; with HT29 colon, over 100 µM; in the experiment on K-562 leukemia, over 100000 nM; in the experiment on NCI-H460 lung, over 100 µM; with RPMI-8226 leukemia, over 100000 nM; in the experiment on RXF 393 renal, over 100000 nM. For the same molecule, the GI50 with SF-539 CNS is over 100000 nM; in the experiment with SK-MEL-5 melanoma, over 100 µM; with SNB-19 CNS, over 100 µM; in the experiment on UACC-257 melanoma, over 100000 nM. The TGI in the experiment on A549 NSCLC, in the experiment with HT29 colon, with K-562 leukemia, in the experiment on NCI-H460 lung, with RPMI-8226 leukemia and in the experiment on RXF 393 renal was over 100 µM in each case. Besides, the TGI in the experiment with SF-539 CNS, with SK-MEL-5 melanoma, in the experiment with SNB-19 CNS and with UACC-257 melanoma was over 100 µM in each case.

`Cn1cc(C(=O)C2CCCCC2)ccc1=O`: the TGI in the experiment on A549 NSCLC, in the experiment with HT29 colon, with K-562 leukemia, with NCI-H460 lung, in the experiment with RPMI-8226 leukemia and in the experiment on RXF 393 renal was over 100 µM in each case. Besides, the TGI in the experiment with SF-539 CNS, in the experiment on SK-MEL-5 melanoma and in the experiment on SNB-19 CNS was over 100 µM in each case.

Consider `CC(C)[C@]12O[C@H]1[C@@H]1O[C@]13[C@]1(O[C@H]1C[C@H]1c4c(C(=O)c5ccccc5)oc(OC(=O)c5ccccc5)c4CC[C@@]13C)[C@@H]2O`, for which the GI50 with A549 NSCLC is 0.059 µM; in the experiment on HT29 colon it was 0.0172 µM; in the experiment with K-562 leukemia it was 21.9 nM; with RPMI-8226 leukemia it was under 14.8 nM; in the experiment with RXF 393 renal it was 19.6 nM; with SF-539 CNS it was 28.2 nM. Further, the GI50 in the experiment on SNB-19 CNS was 0.176 µM; in the experiment on UACC-257 melanoma, 16.8 nM. The TGI with A549 NSCLC is over 62.4 µM; in the experiment with HT29 colon, over 38 µM; with NCI-H460 lung it was 11.4 µM; in the experiment on RPMI-8226 leukemia, 1.06 µM; with RXF 393 renal, 0.0497 µM; with SF-539 CNS it was 0.115 µM. In addition, the TGI in the experiment on SNB-19 CNS was 36.6 µM; in the experiment on UACC-257 melanoma, 0.0628 µM.

In the case of `C=C1C(=O)O[C@H]2[C@H]1CC/C(Cn1cc(CCC)nn1)=C\CC[C@@]1(C)O[C@@H]21`, the GI50 in the experiment on A549 NSCLC is 22.3 µM; in the experiment with HT29 colon, 5.5 µM; with K-562 leukemia, 3960 nM; in the experiment with NCI-H460 lung, 21.2 µM; in the experiment with RPMI-8226 leukemia, 5520 nM; with RXF 393 renal it was 4800 nM. Further, the figures for the GI50 with SF-539 CNS, in the experiment on SK-MEL-5 melanoma and with SNB-19 CNS were 8870 nM, 15.3 µM and 18.8 µM, respectively. Also, the TGI in the experiment with A549 NSCLC was 44.3 µM; with HT29 colon it was 18.2 µM; in the experiment with K-562 leukemia, 29.8 µM; with NCI-H460 lung, 41.5 µM; in the experiment on RPMI-8226 leukemia it was 27.1 µM; in the experiment on RXF 393 renal it was 16.5 µM. For the same molecule, the TGI in the experiment with SF-539 CNS came to 22.5 µM; in the experiment with SK-MEL-5 melanoma, 29.6 µM; in the experiment on SNB-19 CNS, 38.1 µM.

Regarding `O=S1(=O)CSc2ccc3ccccc3c2-c2c1ccc1ccccc21`, the TGI in the experiment on A549 NSCLC, in the experiment with HT29 colon, in the experiment with K-562 leukemia, in the experiment on NCI-H460 lung, in the experiment on RXF 393 renal and with SF-539 CNS was over 100 µM throughout. In addition, the TGI with SK-MEL-5 melanoma, with SNB-19 CNS and in the experiment with UACC-257 melanoma was over 100 µM each time.

As to `C[Si](C)(C)/C(Br)=C\CCN1C(=O)CCC1O` (stereo not drawn), the TGI in the experiment on A549 NSCLC, in the experiment with HT29 colon, in the experiment on K-562 leukemia, in the experiment with NCI-H460 lung, in the experiment on RPMI-8226 leukemia and in the experiment on RXF 393 renal was over 100 µM each time. Also, the TGI in the experiment on SF-539 CNS, in the experiment with SNB-19 CNS and with UACC-257 melanoma was over 100 µM each time.

In the case of `O=Cc1ccc(C(F)(F)F)cc1.[C-]#[O+].[C-]#[O+].[C-]#[O+].[Cr]`, the GI50 is 23 µM in the experiment on A549 NSCLC; 22.6 µM in the experiment with HT29 colon; 26200 nM in the experiment with K-562 leukemia; 13.3 µM in the experiment on NCI-H460 lung; 18600 nM in the experiment with RXF 393 renal; 18500 nM in the experiment on SF-539 CNS. The results for the GI50 with SK-MEL-5 melanoma, in the experiment on SNB-19 CNS and in the experiment with UACC-257 melanoma were 12.6 µM, 26.7 µM and 58200 nM, respectively. For the same molecule, the TGI with A549 NSCLC was over 100 µM; in the experiment with HT29 colon, 54.3 µM; with K-562 leukemia, 97.6 µM; with NCI-H460 lung, 40.3 µM; in the experiment on RXF 393 renal, 66.6 µM; with SF-539 CNS, 54.3 µM. For the same molecule, the TGI in the experiment with SK-MEL-5 melanoma was 28.3 µM; with SNB-19 CNS it was 89.6 µM; in the experiment with UACC-257 melanoma it was over 100 µM.

For `CCOC1NC(=O)Oc2ccccc21` (stereo not drawn), the TGI in the experiment with A549 NSCLC, with HT29 colon, in the experiment with K-562 leukemia, in the experiment on NCI-H460 lung, in the experiment on RXF 393 renal and in the experiment with SF-539 CNS was over 100 µM each time. In addition, the TGI in the experiment with SK-MEL-5 melanoma, with SNB-19 CNS and in the experiment on UACC-257 melanoma was over 100 µM each time.

As for `Oc1ccc2ccccc2c1/C=N\Nc1ccccn1`, the GI50 is 39.1 µM with HT29 colon; 426 nM with K-562 leukemia; 0.336 µM in the experiment with NCI-H460 lung; 654 nM in the experiment with RPMI-8226 leukemia; 1550 nM in the experiment with RXF 393 renal; 529 nM in the experiment on SF-539 CNS. Besides, the results for the GI50 in the experiment with SK-MEL-5 melanoma, in the experiment with SNB-19 CNS and in the experiment on UACC-257 melanoma were 1.57 µM, 1.33 µM and 1720 nM, respectively. Besides, the TGI was over 100 µM with HT29 colon; over 100 µM in the experiment with K-562 leukemia; 1.75 µM with NCI-H460 lung; over 100 µM in the experiment with RPMI-8226 leukemia; over 57.4 µM with RXF 393 renal; over 26.8 µM in the experiment on SF-539 CNS. The results for the TGI in the experiment with SK-MEL-5 melanoma, in the experiment with SNB-19 CNS and in the experiment with UACC-257 melanoma were over 50.1 µM, over 100 µM and over 100 µM, respectively.

`Cc1ccc(/C=C2\CCOC2=O)cc1`: the GI50 in the experiment with A549 NSCLC was over 100 µM; in the experiment on HT29 colon, over 100 µM; in the experiment on K-562 leukemia it was over 100000 nM; in the experiment on NCI-H460 lung, over 100 µM; in the experiment with RXF 393 renal, over 100000 nM; in the experiment with SF-539 CNS, over 100000 nM. The GI50 was over 100 µM in the experiment with SK-MEL-5 melanoma, over 100 µM in the experiment on SNB-19 CNS and over 100000 nM in the experiment with UACC-257 melanoma. Also, the TGI in the experiment on A549 NSCLC, in the experiment with HT29 colon, in the experiment on K-562 leukemia, with NCI-H460 lung, in the experiment on RXF 393 renal and with SF-539 CNS was over 100 µM in each case. The TGI in the experiment on SK-MEL-5 melanoma, in the experiment with SNB-19 CNS and with UACC-257 melanoma was over 100 µM in each case.

Consider `COc1ccc2c(CNCCCCO)cc3cc4c(cc3c2c1)OCO4`, for which the GI50 with A549 NSCLC was 0.552 µM; with HT29 colon, 1.29 µM; in the experiment with K-562 leukemia, 1070 nM; in the experiment on RPMI-8226 leukemia, 655 nM; in the experiment with RXF 393 renal, 680 nM; in the experiment on SF-539 CNS it was 1260 nM. Moreover, the GI50 in the experiment with SK-MEL-5 melanoma is 0.818 µM; with SNB-19 CNS, 1.71 µM; in the experiment with UACC-257 melanoma, 823 nM. The TGI in the experiment on A549 NSCLC turned out to be 6.07 µM; in the experiment with HT29 colon it was 6.87 µM; in the experiment on K-562 leukemia, 20.3 µM; in the experiment with RPMI-8226 leukemia, 3.77 µM; in the experiment with RXF 393 renal, 2.49 µM; in the experiment on SF-539 CNS it was 4.13 µM. In addition, the TGI with SK-MEL-5 melanoma came out at 2.13 µM; in the experiment with SNB-19 CNS, 9.78 µM; with UACC-257 melanoma it was 2.88 µM.

In the case of `COc1nc2c(nc(N)n2C2OC(CO)C(O)C(O)C2O)c(=O)n1C` (stereo not drawn), the TGI with A549 NSCLC, in the experiment with HT29 colon, in the experiment on K-562 leukemia, with NCI-H460 lung, in the experiment on RXF 393 renal and in the experiment on SF-539 CNS was over 100 µM throughout. The TGI in the experiment with SK-MEL-5 melanoma, in the experiment on SNB-19 CNS and in the experiment with UACC-257 melanoma was over 100 µM in each case.

For the origin of these results see PubChem BioAssay (NCI).
